In patent US10894798B2, “Substituted dihydropyrrolopyrazole derivative” (UBE INDUSTRIES, LTD., priority 2015, dated 2021):

How the values were obtained:
[1] = test system: mouse imiquimod-induced psoriasis model; test: Ear thickening suppression test using mouse imiquimod-induced psoriasis model; assay type: in vivo; conditions: topical, application of a 0.01% solution in methanol, female BALB/c mice, read-out: rate of inhibition of increase in ear thickness
Protocol: An imiquimod-induced psoriasis model test was carried out by modifying the method of Leslie van der Fits et al. (J. Immunol. 182, 5836 (2009)).
Female BALB/c mice (supplied by Charles River Laboratories Japan, Inc.) were used as laboratory animals. On the start day of the test, the thicknesses of the right auricles of the mice were measured with a thickness gauge (manufactured by TECLOCK Corp.). A test compound or a solvent was applied or orally administered thereto, and after a certain time, a certain amount of Beselna Cream 5% (containing 5% imiquimod, manufactured by Mochida Pharmaceutical Co., Ltd.) was applied to the insides of the right auricles. The test compound or solvent application or oral administration and the imiquimod application were carried out for a certain period, and the thicknesses of the right auricles were measured again on the final day. The thicknesses of the right auricles were compared between the solvent-administered group and the test compound group, and the rate of inhibition was calculated.

[2] = test system: breast cancer cell line BT-549; test: Various human cancer cell growth inhibition test: BT-549; assay type: cell-based; conditions: ATPlite, read-out: GI50 value (concentration necessary for inhibiting 50% of cell growth)
Description: (§1) A breast cancer cell line BT-549 (obtained from American Type Culture Collection (ATCC)), a uterus cancer cell line C-33A (obtained from ATCC), an ovary cancer cell line PA-1 (obtained from ATCC), a large-cell lung cancer cell line NCI-H460 (obtained from ATCC), a small-cell lung cancer cell line NCI-H82 (obtained from ATCC), a kidney cancer cell line ACHN (obtained from ATCC), a pancreatic cancer cell line BxPC-3 (obtained from ATCC), a malignant melanoma cell line A375 (obtained from ATCC), a throat cancer cell line FaDu (obtained from ATCC), a medulloblastoma cell line Daoy (obtained from ATCC), a cutaneous epithelioid sarcoma cell line VA-ES-BJ (obtained from ATCC), a rhabdomyosarcoma cell line A-204 (obtained from ATCC), a prostate cancer cell line DU145 (obtained from ATCC), a bladder cancer cell line T24 (obtained from ATCC), a lymphoma cell line SR (obtained from ATCC), a neuroblastoma cell line SH-SY5Y (obtained from DS Pharma Biomedical Co., Ltd.), a liver cancer cell line HepG2 (obtained from DS Pharma Biomedical Co., Ltd.), a stomach cancer cell line HGC-27 (obtained from DS Pharma Biomedical Co., Ltd.), and a multiple myeloma cell line NCI-H929 (obtained from DS Pharma Biomedical Co., Ltd.) were used as human cancer cell lines.
(§2) Each cell line was cultured in a cell culture medium recommended by ATCC or DS Pharma Biomedical Co., Ltd. and inoculated at 0.3 to 5.0×10^3 cells/well to a 96-well plate. The cells were cultured overnight in a carbon dioxide incubator of 37° C. containing 5% carbon dioxide. The medium was replaced with a fresh medium on the next day, then replaced with a mixed solution of a DMSO solution of a test compound with varying concentrations and a culture medium (final DMSO concentration: 0.1%), and left standing in a carbon dioxide incubator (day 0). IV-361, IV-379, IV-3, IV-215, IV-299, IV-669, IV-1049, and palbociclib (for comparison) were used as test compounds. For a control group, DMSO was added instead of the DMSO solution of the test compound to a cell culture medium (final DMSO concentration: 0.1%).
(§3) After culture for a predetermined period, the ATP activity of BT-549, C-33A, PA-1, NCI-H460, NCI-H82, ACHN, BxPC-3, A375, FaDu, Daoy, VA-ES-BJ, A-204, DU145, T24, and SR was measured by using ATPlite (manufactured by PerkinElmer, Inc.). The ATP activity of SH-SY5Y, HepG2, HGC-27, and NCI-H929 was measured by using CellTiter-Glo (manufactured by Promega Corp.).
(§4) The rate of inhibition of cell growth (%) was calculated according to the expression given below. Specifically, in the case where the difference between the ATP activity before culture (day 0) and the ATP activity after culture in the test compound-administered group is the same as the difference between the ATP activity before culture (day 0) and the ATP activity after culture in the control group, the rate of inhibition of cell growth is 0%. Rate of inhibition of cell growth=(1−((ATP activity of the test compound-administered group after culture)−(ATP activity of the test compound-administered group on day 0))/((ATP activity of the control group after culture)−(ATP activity of the control group on day 0)))×100
(§5) The concentration of the test compound necessary for inhibiting 50% of cell growth (GI50 value) was calculated by using EXSUS (version 8.1.0, manufactured by CAC Exicare Corp.).

[3] = test system: uterus cancer cell line C-33A; test: Various human cancer cell growth inhibition test: C-33A; assay type: cell-based; conditions: ATPlite, read-out: GI50 value (concentration necessary for inhibiting 50% of cell growth)
Description: as §1, §2, §3, §4, §5

[4] = test system: ovary cancer cell line PA-1; test: Various human cancer cell growth inhibition test: PA-1; assay type: cell-based; conditions: ATPlite, read-out: GI50 value (concentration necessary for inhibiting 50% of cell growth)
Description: as §1, §2, §3, §4, §5

[5] = test system: large-cell lung cancer cell line NCI-H460; test: Various human cancer cell growth inhibition test: NCI-H460; assay type: cell-based; conditions: ATPlite, read-out: GI50 value (concentration necessary for inhibiting 50% of cell growth)
Description: as §1, §2, §3, §4, §5

[6] = test system: small-cell lung cancer cell line NCI-H82; test: Various human cancer cell growth inhibition test: NCI-H82; assay type: cell-based; conditions: ATPlite, read-out: GI50 value (concentration necessary for inhibiting 50% of cell growth)
Description: as §1, §2, §3, §4, §5

[7] = test system: kidney cancer cell line ACHN; test: Various human cancer cell growth inhibition test: ACHN; assay type: cell-based; conditions: ATPlite, read-out: GI50 value (concentration necessary for inhibiting 50% of cell growth)
Description: as §1, §2, §3, §4, §5

[8] = test system: pancreatic cancer cell line BxPC-3; test: Various human cancer cell growth inhibition test: BxPC-3; assay type: cell-based; conditions: ATPlite, read-out: GI50 value (concentration necessary for inhibiting 50% of cell growth)
Description: as §1, §2, §3, §4, §5

[9] = test system: malignant melanoma cell line A375; test: Various human cancer cell growth inhibition test: A375; assay type: cell-based; conditions: A-375, ATPlite, read-out: GI50 value (concentration necessary for inhibiting 50% of cell growth)
Description: as §1, §2, §3, §4, §5

[10] = test system: throat cancer cell line FaDu; test: Various human cancer cell growth inhibition test: FaDu; assay type: cell-based; conditions: ATPlite, read-out: GI50 value (concentration necessary for inhibiting 50% of cell growth)
Description: as §1, §2, §3, §4, §5

[11] = test system: medulloblastoma cell line Daoy; test: Various human cancer cell growth inhibition test: Daoy; assay type: cell-based; conditions: ATPlite, read-out: GI50 value (concentration necessary for inhibiting 50% of cell growth)
Description: as §1, §2, §3, §4, §5

[12] = test system: cutaneous epithelioid sarcoma cell line VA-ES-BJ; test: Various human cancer cell growth inhibition test: VA-ES-BJ; assay type: cell-based; conditions: ATPlite, read-out: GI50 value (concentration necessary for inhibiting 50% of cell growth)
Description: as §1, §2, §3, §4, §5

[13] = test system: rhabdomyosarcoma cell line A-204; test: Various human cancer cell growth inhibition test: A-204; assay type: cell-based; conditions: A204, ATPlite, read-out: GI50 value (concentration necessary for inhibiting 50% of cell growth)
Description: as §1, §2, §3, §4, §5

[14] = test system: prostate cancer cell line DU145; test: Various human cancer cell growth inhibition test: DU145; assay type: cell-based; conditions: DU 145, ATPlite, read-out: GI50 value (concentration necessary for inhibiting 50% of cell growth)
Description: as §1, §2, §3, §4, §5

lymphoma cell line SR = test: Various human cancer cell growth inhibition test: SR; assay type: cell-based; conditions: ATPlite, read-out: GI50 value (concentration necessary for inhibiting 50% of cell growth)
Description: as §1, §2, §3, §4, §5

[15] = test system: liver cancer cell line HepG2; test: Various human cancer cell growth inhibition test: HepG2; assay type: cell-based; conditions: CellTiter-Glo, read-out: GI50 value (concentration necessary for inhibiting 50% of cell growth)
Description: as §1, §2, §3, §4, §5

[16] = test system: stomach cancer cell line HGC-27; test: Various human cancer cell growth inhibition test: HGC-27; assay type: cell-based; conditions: CellTiter-Glo, read-out: GI50 value (concentration necessary for inhibiting 50% of cell growth)
Description: as §1, §2, §3, §4, §5

[17] = test system: multiple myeloma cell line NCI-H929; test: Various human cancer cell growth inhibition test: NCI-H929; assay type: cell-based; conditions: CellTiter-Glo, read-out: GI50 value (concentration necessary for inhibiting 50% of cell growth)
Description: as §1, §2, §3, §4, §5

Row | GI50 [2] [nM] | GI50 [3] [nM] | GI50 [4] [nM] | GI50 [5] [nM] | GI50 [6] [nM] | GI50 [7] [nM] | GI50 [8] [nM] | GI50 [9] [nM] | GI50 [10] [nM] | GI50 [11] [nM] | GI50 [13] [nM] | GI50 [14] [nM] | GI50 (lymphoma cell line SR) [nM] | GI50 [15] [nM] | GI50 [16] [nM] | GI50 [17] [nM] | Structure (SMILES) | inhibition in vivo at 0.01 % [1] [%] | GI50 [12] [nM]
1 | – | – | – | – | – | – | – | – | – | – | – | – | – | – | – | – | COc1cccc(Cl)c1NC(=O)N1Cc2c(NC(=O)C3([Si](C)(C)C)CCC3)n[nH]c2C1(C)C [IV-247, N-(2-Chloro-6-methoxyphenyl)-6,6-dimethyl-3-[1-(trimethylsilyl)cyclobutanecarboxamido]-4,6-dihydropyrrolo[3,4-c]pyrazole-5(1H)-carboxamide] | ≥ 50 | –
2 | – | – | – | – | – | – | – | – | – | – | – | – | – | – | – | – | Cc1cccc(F)c1NC(=O)N1Cc2c(NC(=O)C3([Si](C)(C)C)CCC3)n[nH]c2C1(C)C [IV-129, N-(2-Fluoro-6-methylphenyl)-6,6-dimethyl-3-[1-(trimethylsilyl)cyclobutanecarboxamido]-4,6-dihydropyrrolo[3,4-c]pyrazole-5 (1H)-carboxamide] | ≥ 50 | –
3 | < 300 | < 300 | < 300 | < 300 | < 300 | < 300 | < 300 | < 300 | < 300 | < 300 | < 300 | < 300 | < 300 | < 300 | < 300 | < 300 | Cc1ccc(C)c(NC(=O)N2Cc3c(NC(=O)C4([Si](C)(C)C)CCC4)n[nH]c3C2(C)C)c1 [IV-379, N-(2,5-Dimethylphenyl)-6,6-dimethyl-3-[1-(trimethylsilyl)cyclobutanecarboxamido]-4,6-dihydropyrrolo[3,4-c]pyrazole-5(1H)-carboxamide] | – | < 300
4 | < 300 | < 300 | < 300 | < 300 | < 300 | < 300 | < 300 | < 300 | < 300 | < 300 | < 300 | < 300 | < 300 | 300 to 1000 | < 300 | < 300 | CC1(C)c2[nH]nc(NC(=O)C3([Si](C)(C)C)CCC3)c2CN1C(=O)Nc1ccccc1F [IV-3, N-(2-Fluorophenyl)-6,6-dimethyl-3-[1-(trimethylsilyl)cyclobutanecarboxamido]-4,6-dihydropyrrolo[3,4-c]pyrazole-5(1H)-carboxamide] | – | < 300
5 | < 300 | < 300 | < 300 | < 300 | < 300 | < 300 | < 300 | < 300 | < 300 | < 300 | < 300 | < 300 | < 300 | < 300 | < 300 | < 300 | CC1(C)c2[nH]nc(NC(=O)C3([Si](C)(C)C)CCC3)c2CN1C(=O)Nc1c(F)ccc2ccoc12 [IV-1049, N-(6-Fluorobenzofuran-7-yl)-6,6-dimethyl-3-[1-(trimethylsilyl)cyclobutanecarboxamido]-4,6-dihydropyrrolo[3,4-c]pyrazole-5 (1H)-carboxamide] | – | < 300
6 | – | – | – | – | – | – | – | – | – | – | – | – | – | – | – | – | CC1(C)c2[nH]nc(NC(=O)C3([Si](C)(C)C)CCC3)c2CN1C(=O)Nc1c(F)cccc1OC(F)F [IV-169, N-[2-(Difluoromethoxy)-6-fluorophenyl]-6,6-dimethyl-3-[1-(trimethylsilyl)cyclobutanecarboxamido]-4,6-dihydropyrrolo[3,4-c]pyrazole-5(1H)-carboxamide] | ≥ 50 | –
7 | < 300 | < 300 | < 300 | < 300 | < 300 | < 300 | < 300 | < 300 | < 300 | < 300 | < 300 | < 300 | < 300 | < 300 | < 300 | < 300 | Cc1ccc(C)c(NC(=O)N2Cc3c(NC(=O)C4([Si](C)(C)C)CCC4)n[nH]c3C2(C)C)c1F [IV-669, N-(2-Fluoro-3,6-dimethylphenyl)-6,6-dimethyl-3-[1-(trimethylsilyl)cyclobutanecarboxamido]-4,6-dihydropyrrolo[3,4-c]pyrazole-5(1H)-carboxamide] | – | < 300
8 | – | – | – | – | – | – | – | – | – | – | – | – | – | – | – | – | CCc1cccc(C)c1NC(=O)N1Cc2c(NC(=O)C3([Si](C)(C)C)CCC3)n[nH]c2C1(C)C [IV-389, N-(2-Ethyl-6-methylphenyl)-6,6-dimethyl-3-[1-(trimethylsilyl)cyclobutanecarboxamido]-4,6-dihydropyrrolo[3,4-c]pyrazole-5 (1H)-carboxamide] | ≥ 50 | –
9 | – | – | – | – | – | – | – | – | – | – | – | – | – | – | – | – | CCc1cccc(F)c1NC(=O)N1Cc2c(NC(=O)C3([Si](C)(C)C)CCC3)n[nH]c2C1(C)C [IV-137, N-(2-Ethyl-6-fluorophenyl)-6,6-dimethyl-3-[1-(trimethylsilyl)cyclobutanecarboxamido]-4,6-dihydropyrrolo[3,4-c]pyrazole-5(1H)-carboxamide] | ≥ 50 | –
10 | – | – | – | – | – | – | – | – | – | – | – | – | – | – | – | – | CC1(C)c2[nH]nc(NC(=O)C3([Si](C)(C)C)CCC3)c2CN1C(=O)Nc1c(Cl)cccc1Cl [IV-199, N-(2,6-Dichlorophenyl)-6,6-dimethyl-3-[1-(trimethylsilyl)cyclobutanecarboxamido]-4,6-dihydropyrrolo[3,4-c]pyrazole-5(1H)-carboxamide] | ≥ 50 | –
